Read-outs that look alike come from different tables or passages of the source.
Tests used:
[1] = tested on: Wnt activity (Sp5-Luc reporter in SW480 colon carcinoma cells); experiment: Wnt activity screening assay (Sp5-Luc reporter gene assay); assay type: cell-based, human
Method in brief: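 Compounds at 10 points (1:3 steps, top 10 μM, 0.1% DMSO final) were incubated 36 to 48 h at 37° C with stable Sp5-Luc SW480 reporter cells in 1% FBS medium. Luciferase luminescence was then read and expressed relative to DMSO-only cells. Four-parameter variable-slope fitting yielded EC50 values.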

[2] = target: GSK3β kinase (Homo sapiens (Human), UniProt P49841); experiment: GSK3β kinase assay (Ser/Thr 09 peptide Z-lyte, FRET); assay type: biochemical; conditions: method text calls the value IC50;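 further: Coumarin/fluorescein emission ratio converted to percent phosphorylation against unphosphorylated (0%) and phosphorylated (100%) controls, 1 h compound incubation at room temperature, 11-point threefold dilutions from 10 µM, run in duplicate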
Method: Representative compounds were screened using the assay procedure for GSK30 kinase activity as described below.
Each compound is dissolved in DMSO as a 10 mM stock and used to prepare compound source plates. Serial dilution (1:3, 11-point dose-response curves from 10 M to 0.0003 μM) and compound transfer was performed using the ECHO 550 (Labcyte, Sunnyvale, Calif.) into 1536-well black-walled round bottom plates (Corning).
This is a non-radioactive assay using fluorescence resonance energy transfer (FRET) between coumarin and fluorescein to detect kinase activity which is represented as ratio of coumarin emission/fluorescein emission.
The mixture is allowed to incubate with the representative compounds for one hour at room temperature. All reactions were performed in duplicate. Unphosphorylated (“0% Control”) and phosphorylated (“100% control”) forms of Ser/Thr 18 serve as control reactions.
After incubation, diluted Development Buffer is added to the reaction and allowed to further incubate for one hour at room temperature.
The percent phosphorylation is then calculated using the following formula: [1−((Em ratio×F100%)−C100%)/((C0%−C100%)+(Em ratio×(F100%−F0%)))].
Dose-response curves are generated and inhibitory concentration (IC50) values are calculated using non-linear regression curve fit in the Dotmatics' Studies Software (Bishops Stortford, UK).

[3] = tested on: Tau phosphorylation at Ser396 (pSer396), SH-SY5Y cells; experiment: Tau phosphorylation at Ser396 (pSer396) in SH-SY5Y cells, ELISA/western blot; assay type: cell-based, human; conditions: Homo sapiens;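 further: cell lysates probed for reduced Tau pSer396 via ELISA (colorimetric) or western blot (chemiluminescence), both with one shared pSer396 antibody, EC50 for lowering phosphorylation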
[4] = tested on: SW480 colon carcinoma cells; experiment: Cell viability assay (CellTiter-Glo) in SW480 cells; assay type: cell-based, human;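 further: SW480 cells stably carrying an Sp5-luciferase TCF/LEF reporter, luminescent ATP signal as viability measure, DMSO-treated cells as control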
[5] = tested on: LL29 cells (primary human fibroblasts derived from IPF patients), α-smooth muscle actin; experiment: Inhibition of fibrotic process: αSMA in TGF-β1-treated primary human fibroblasts from IPF patients (LL29 cells); assay type: cell-based; conditions: Homo sapiens, Fibroblast; for EC50: 96 h, % αSMA-positive LL29 cells, TGF-β1 20 ng/mL, 4 days; for inhibition at 10 µM: read-out: percent inhibition at 10 μM
Method in brief: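 Read-out is the percentage of αSMA-positive cells by high-content imaging, excluding SYTOX green-positive dead/apoptotic cells, normalized to TGF-β1-only wells on the same plate. LL29 cells were exposed for 4 days at 37 °C to 20 ng/mL TGF-β1 plus 11-point, 2-fold compound dilutions in 0.1% DMSO.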

[6] = tested on: IL-6; experiment: IL-6 inhibition in LPS-stimulated human peripheral blood mononuclear cells (HTRF); assay type: cell-based; conditions: Homo sapiens, PBMC; for EC50: IL-6, LPS-stimulated huPBMCs, HTRF; for inhibition at 10 µM: read-out: percent value in parentheses below EC50 >10
Method in brief: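 EC50 from a 4-parameter fit of DMSO-normalized HTRF (665/620 nm) IL-6 signal, duplicates. Compound was added to fresh human PBMCs in 1% FBS RPMI for 2 h (top 10 μM, 3-fold, 0.25% DMSO) before 22 h stimulation with LPS at 50 ng/mL, 37 °C.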

[7] = target: DYRK1A kinase (Homo sapiens (Human), UniProt Q13627); experiment: DYRK1A kinase assay (Ser/Thr 18 peptide Z-lyte, FRET)
[8] = Homo sapiens; Sp5-Luc reporter, SW480 cells, 36 to 48 hours
[9] = SH-SY5Y cells, overnight (16-18 h), read-out: pSer396 Tau EC50
[10] = Homo sapiens, 96 h; cell viability, SW480 cells, four days, CellTiter-Glo
[11] = DYRK1A kinase, method text calls the value IC50
[12] = Homo sapiens, SW480; read-out: percent inhibition at 10 μM
[13] = Homo sapiens, SW480, read-out: percent inhibition at 10 μM

Chain of GSK3β kinase (P49841 whole entry): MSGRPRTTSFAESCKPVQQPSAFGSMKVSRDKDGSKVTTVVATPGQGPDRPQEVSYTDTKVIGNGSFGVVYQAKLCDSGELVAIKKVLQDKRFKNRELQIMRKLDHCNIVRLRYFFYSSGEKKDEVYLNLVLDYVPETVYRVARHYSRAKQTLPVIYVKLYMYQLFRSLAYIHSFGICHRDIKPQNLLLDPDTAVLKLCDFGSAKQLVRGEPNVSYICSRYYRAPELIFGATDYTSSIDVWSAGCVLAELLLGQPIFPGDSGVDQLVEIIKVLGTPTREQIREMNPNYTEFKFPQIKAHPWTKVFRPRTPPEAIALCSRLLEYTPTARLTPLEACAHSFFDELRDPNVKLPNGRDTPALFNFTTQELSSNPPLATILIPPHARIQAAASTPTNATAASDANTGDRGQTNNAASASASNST

Compound | EC50 [1, 8] | EC50 [2] | EC50 [3, 9] | EC50 [4, 10] | EC50 [6] | EC50 [7, 11] | EC50 [7] | EC50 [5] | inhibition at 10 µM [1, 12] | inhibition at 10 µM [4, 12] | inhibition at 10 µM [5] | inhibition at 10 µM [6] | inhibition at 10 µM [1, 13] | EC50 ([3]; SH-SY5Y, read-out: pSer396 Tau EC50 (μM)) | inhibition at 10 µM [4, 13]
Cn1cc(-c2cc(F)c3cnc(NC(=O)[C@H]4CC[C@H](NCC(F)F)CC4)cc3c2)cn1 [Compound 103, trans-4-((2,2-Difluoroethyl)amino)-N-(8-fluoro-6-(1-methyl-1H-pyrazol-4-yl)isoquinolin-3-yl)cyclohexane-1-carboxamide] | 2970 nM | 30 nM | 1.3 µM | 6080 nM | 1080 nM | 5 nM |  | 392 nM |  |  |  |  |  |  | 
Cc1ncc(-c2ccc3cnc(NC(=O)[C@H]4CC[C@H](NCC(F)F)CC4)cc3c2)o1 [Compound 104, trans-4-((2,2-Difluoroethyl)amino)-N-(6-(2-methyloxazol-5-yl)isoquinolin-3-yl)cyclohexane-1-carboxamide] | 3600 nM | 149 nM | 0.712 µM | 4590 nM | 1140 nM | 8 nM |  | 220 nM |  |  |  |  |  |  | 
Cc1nnc(-c2ccc3cnc(NC(=O)N4CC5CCC(C4)N5C)cc3c2)s1 [Compound 110, 8-Methyl-N-(6-(5-methyl-1,3,4-thiadiazol-2-yl)isoquinolin-3-yl)-3,8-diazabicyclo[3.2.1]octane-3-carboxamide] | > 10000 nM | 314 nM |  | > 10000 nM | > 10000 nM | 17 nM |  | 1970 nM |  |  |  | 7% | 24.5% | 2.1 µM | 1.5%
Cc1nnc(-c2ccc3cnc(NC(=O)N4CCC(NC(CF)CF)CC4)cc3c2)s1 [Compound 121, 4-((1,3-Difluoropropan-2-yl)amino)-N-(6-(5-methyl-1,3,4-thiadiazol-2-yl)isoquinolin-3-yl)piperidine-1-carboxamide] | 8130 nM | 82 nM | 0.953 µM | > 10000 nM | > 10000 nM | 35 nM |  | > 10000 nM |  | 36.5% | 10.4% | 5.4% |  |  | 
Cc1ncc(-c2ccc3cnc(NC(=O)[C@H]4CC[C@H](NC(CF)CF)CC4)cc3c2)o1 [Compound 124, trans-4-((1,3-difluoropropan-2-yl)amino)-N-(6-(2-methyloxazol-5-yl)isoquinolin-3-yl)cyclohexane-1-carboxamide] | 3480 nM | 217 nM | 0.612 µM | 1020 nM | 1880 nM | 35 nM |  | 451 nM |  |  |  |  |  |  | 
Cc1nnc(-c2ccc3cnc(NC(=O)N4CCn5ccnc5C4)cc3c2)s1 [Compound 125, N-(6-(5-Methyl-1,3,4-thiadiazol-2-yl)isoquinolin-3-yl)-5,6-dihydroimidazo [1,2-a]pyrazine-7(8H)-carboxamide] | 1240 nM | 5 nM | 0.114 µM | 1660 nM | 9270 nM | 4 nM |  | 442 nM |  |  |  |  |  |  | 
Cc1nnc(-c2ccc3cnc(NC(=O)N4CC[C@@H](NC(C)C)[C@H](F)C4)cc3c2)s1 [Compound 130, (3R,4R)-3-Fluoro-4-(isopropylamino)-N-(6-(5-methyl-1,3,4-thiadiazol-2-yl)isoquinolin-3-yl)piperidine-1-carboxamide] | 4040 nM | 142 nM | 1.5 µM | 4210 nM | > 10000 nM | 37 nM |  | 3300 nM |  |  |  | 12.2% |  |  | 
[2H]c1c(NC(=O)CN2CCOCC2)ncc2ccc(-c3nnc(C)s3)cc12 [Compound 135, N-(6-(5-Methyl-1,3,4-thiadiazol-2-yl)isoquinolin-3-yl-4-d)-2-morpholinoacetamide] | 5690 nM | 22 nM | 0.365 µM | > 10000 nM | > 10000 nM |  | 41 nM | 2140 nM |  | 27.8% |  | 0% |  |  | 
[2H]c1c(NC(=O)CN2CCOCC2)ncc2ccc(-c3cnc(C)o3)cc12 [Compound 137, N-(6-(2-Methyloxazol-5-yl)isoquinolin-3-yl-4-d)-2-morpholinoacetamide] | > 10000 nM | 68 nM | 0.573 µM | > 10000 nM | 2280 nM |  | 18 nM | 3130 nM | 38.5% | 39% |  |  |  |  | 

The next lines start with results.

EC50 [1, 8] | EC50 [2] | EC50 [3, 9] | EC50 [4, 10] | EC50 [6] | EC50 [7, 11] | EC50 [7] | Compound | EC50 [5] | inhibition at 10 µM [1, 12] | inhibition at 10 µM [4, 12] | inhibition at 10 µM [5] | inhibition at 10 µM [6] | inhibition at 10 µM [1, 13] | EC50 ([3]; SH-SY5Y, read-out: pSer396 Tau EC50 (μM)) | inhibition at 10 µM [4, 13]
3250 nM | 434 nM | 2.6 µM | 3030 nM | 2920 nM | 5 nM |  | CN1CCN(C(=O)[C@H]2CC[C@H](C(=O)Nc3cc4cc(-c5cnn(C)c5)cc(F)c4cn3)CC2)CC1 [Compound 102, trans-N-(8-Fluoro-6-(1-methyl-1H-pyrazol-4-yl)isoquinolin-3-yl)-4-(4-methylpiperazine-1-carbonyl)cyclohexane-1-carboxamide] | 2400 nM |  |  |  |  |  |  | 
> 10000 nM | 550 nM | 2.2 µM | > 10000 nM | 1570 nM | 34 nM |  | COCCN[C@H]1CC[C@H](C(=O)Nc2cc3cc(-c4cnn(C)c4)cc(F)c3cn2)CC1 [Compound 105, trans-N-(8-Fluoro-6-(1-methyl-1H-pyrazol-4-yl)isoquinolin-3-yl)-4-((2-methoxyethyl)amino)cyclohexane-1-carboxamide] | 812 nM | 15.8% | 16.9% |  |  |  |  | 
7810 nM | 175 nM | 3.1 µM | 4130 nM | > 10000 nM | 10 nM |  | Cc1nnc(-c2ccc3cnc(NC(=O)N4CCN(C)[C@H](C)C4)cc3c2)s1 [Compound 109, (R)-3,4-Dimethyl-N-(6-(5-methyl-1,3,4-thiadiazol-2-yl)isoquinolin-3-yl) piperazine-1-carboxamide] | > 10000 nM |  |  | 19.5% | 6.9% |  |  | 
1180 nM | 24 nM | 0.197 µM | 488 nM | 363 nM | 5 nM |  | Cc1ncc(-c2ccc3cnc(NC(=O)N4CCn5ccnc5C4)cc3c2)o1 [Compound 126, N-(6-(2-Methyloxazol-5-yl)isoquinolin-3-yl)-5,6-dihydroimidazo[1,2-a]pyrazine-7(8H)-carboxamide] | 286 nM |  |  |  |  |  |  | 
3180 nM | 25 nM | 0.491 µM | 4370 nM | > 10000 nM | 16 nM |  | Cc1nnc(-c2ccc3cnc(NC(=O)N4CCC(N5CCOCC5)CC4)cc3c2)s1 [Compound 128, N-(6-(5-Methyl-1,3,4-thiadiazol-2-yl)isoquinolin-3-yl)-4-morpholinopiperidine-1-carboxamide] | 6630 nM |  |  |  | 8% |  |  | 
1810 nM | 90 nM | 0.656 µM | 3620 nM | > 10000 nM | 18 nM |  | Cc1nnc(-c2ccc3cnc(NC(=O)N4CCC(N5CCN(C)CC5)CC4)cc3c2)s1 [Compound 129, N-(6-(5-methyl-1,3,4-thiadiazol-2-yl)isoquinolin-3-yl)-4-(4-methylpiperazin-1-yl)piperidine-1-carboxamide] | 1990 nM |  |  |  | 4.5% |  |  | 
3920 nM | 6 nM | 0.337 µM | > 10000 nM | 1930 nM | 13 nM |  | Cc1nnc(-c2ccc3cnc(NC(=O)N4CC[C@@H](N)[C@H](F)C4)cc3c2)s1 [Compound 131, (3R,4R)-4-Amino-3-fluoro-N-(6-(5-methyl-1,3,4-thiadiazol-2-yl)isoquinolin-3-yl)piperidine-1-carboxamide] | 1930 nM |  | 35.9% |  |  |  |  | 
593 nM | 19 nM | 0.093 µM | 2740 nM | 7130 nM |  | 6 nM | [2H]c1c(NC(=O)C2CCN(C)CC2)ncc2ccc(-c3nnc(C)s3)cc12 [Compound 134, 1-Methyl-N-(6-(5-methyl-1,3,4-thiadiazol-2-yl)isoquinolin-3-yl-4-d) piperidine-4-carboxamide] | 579 nM |  |  |  |  |  |  | 
2110 nM | 80 nM | 0.309 µM | 1120 nM | 463 nM |  | 6 nM | [2H]c1c(NC(=O)C2CCN(C)CC2)ncc2ccc(-c3cnc(C)o3)cc12 [Compound 136, 1-Methyl-N-(6-(2-methyloxazol-5-yl)isoquinolin-3-yl-4-d)piperidine-4-carboxamide] | 418 nM |  |  |  |  |  |  | 

From patent US10604514B2, “6-(5-membered heteroaryl)isoquinolin-3-yl carboxamides and preparation and use thereof” (Samumed, LLC, priority 2017, dated 2020)
